These results are taken from a melting point compilation (Tetko et al.; mined from patent text by program, amines drawn as free bases though some values may be those of a salt).

Regarding `Cn1nnnc1-c1cnc2cc(Cl)c(F)cc2c1O`, the melting point (as a rule, the temperature of the solid-liquid transition) was 326 to 330 °C.
The same measure for `CN(C)C1=CCCS(=O)(=O)c2ccc(Cl)cc21`: 93 to 95 °C.
The same measure for `O=C(Nc1cccc2ccccc12)c1ccn2c1CSC2c1cccnc1` (stereo not given): 136 °C; for `COC(=O)c1cc(-c2ccc(OC)c(Cl)c2)nn(CC(C)C)c1=O`: 108 to 109 °C; for `COC(=O)c1cc(C(C)=O)c(OC(C)=O)cc1NC(=O)C(F)(F)F`: 130 to 131 °C.
The same measure for `CCCCc1nc(Cl)c(CO)n1Cc1ccc(-c2ccccc2-c2nc(=O)o[nH]2)cc1`: 202 to 205 °C; for `CCN(C(=O)N1CCN(c2cc(C)cc(C)c2)CC1)c1cc2ccccc2nc1OC`: 84 to 86 °C; for `COc1ccnc(CCc2nc3cc(-c4ccc(S(=O)(=O)N5CCOCC5)cc4)cnc3[nH]2)c1`: 210 to 212 °C.
In turn, `Nn1c(-c2ccccc2)nc2cc(C(F)(F)F)ccc21` showed a melting point of 200 to 203 °C.
As for `Nc1nc2c(ncn2OCCCOCP(=O)(O)O)c(=O)[nH]1`, the figure is 247 to 250 °C.
For `Cn1cc(C(=O)O)c(=O)c2cc(F)c(N3CCNCC3)cc21`, the melting point was 310 °C.
`CNC(=O)C1=CC(CF)(CF)Oc2ccc(C(F)(F)C(F)(F)F)cc21` registered a melting point of 127 to 128 °C.
The molecule `Cc1nc(C)c(Cl)c(NCc2cccc(Oc3ccc4ncc([N+](=O)[O-])n4n3)c2)n1` displayed a melting point of 222 to 223 °C.
The same measure for `O=C1CCCCCCCCC=CCCCCCCCCC1O` (stereo not given): 66 to 67 °C; for `Cc1cnc(-c2cc(C(F)(F)F)nn2C)nc1Oc1cc(C(F)(F)F)nn1C`: 113 °C.
As for `CC(C)CCCC(C)NC(=O)Oc1ccc(Oc2ccc(Cl)cc2)cc1` (stereo not given), the figure is 46 to 48 °C.
As for `COc1ccc(Nc2cccc(Cl)n2)cc1`, the figure is 74 to 76 °C.
`Cn1c(=O)oc2cc(CCO)cnc21` came in with a melting point of 142 to 144 °C.
The same measure for `Cn1nnnc1SCC1NCCc2cc(OCc3ccccc3)c(OCc3ccccc3)cc21` (stereo not given): 106 to 108 °C; for `COc1ccc(C2CC(O)(c3ccc(OC4CCCCO4)cc3)C2)cc1` (stereo not given): 72 to 75 °C; for `COc1ccc2c(c1)c1c(n2Cc2ccc(Cl)cc2)CCCC1C(=O)O` (stereo not given): 218 to 220 °C.
`OC(Cc1ccncc1)(c1ccc(F)cc1)c1ccc(F)cc1`: the melting point was in the range of 158 to 160 °C.
Take `N#Cc1c(Nc2ccccc2)nn(Cc2ccccc2)c1N`: the melting point is 139 to 140 °C.
As for `COC(=O)c1nc(-c2ccc(Cl)c(OC)c2F)nc(O)c1OC`, the figure is 177 to 179 °C.
The same measure for `CC(C)C(c1ccc(N)cc1)n1cncn1` (stereo not given): 118 °C.
As for `COc1ccc(-c2cc(C(F)(F)F)n3ncc(C(=O)Nc4cccc(S(=O)(=O)N5CCOCC5)c4)c3n2)cc1`, the melting point is 203 °C.
As for `CCN(CC)CC(O)CNC(=O)Cn1ncc(-c2ccccc2)c1-c1ccccc1` (stereo not given), the figure is 70 to 72 °C; as for `COC(=O)c1ccc(CSc2c(C(N)=O)sc3ccc(OC)cc23)cc1`, 150 to 152 °C.
As for `CCOC(=O)C1=C(COCCn2c(C)nnc2-c2ccccc2)NC(C)=C(C(=O)Nc2ccccn2)C1c1ccccc1Cl` (stereo not given), the figure is 167 to 169 °C; as for `CCOc1cccnc1C(=O)NCCNC(=O)OC(C)(C)C`, 125 to 126 °C; as for `CC(C(=O)O)c1ccc(Oc2ccc(F)cc2)cc1` (stereo not given), 84 to 86 °C.
`COc1ccc(C(=O)Nc2cccnc2)cc1NCc1cccs1` returned a melting point of 154 to 155 °C.
`CS(=O)CCN1CCC2(CC1)CC(=O)c1cc(NS(C)(=O)=O)ccc1O2` (stereo not given) registered a melting point of 181 to 183 °C.
`N#CC(C(=O)Nc1ccccc1)C(=O)c1nn(-c2ccccc2)c2c1CSc1ccccc1-2` (stereo not given) yielded a melting point of 228 to 230 °C.
The same measure for `CCOc1ccc(OCCN2CCN(c3cc(Cl)nnc3Cl)CC2)cc1`: 93 to 95 °C; for `NC(=O)c1sc2nccc(NC3CCCCC3)c2c1N`: 244 to 247 °C; for `Cn1c(S(=O)(=O)c2ccc(=O)[nH]n2)cc2ccccc21`: 233 to 235 °C.
For `CC(C)C[C@@H]1NC(=O)O[C@H]1CCS(=O)(=O)CCc1ccccc1`, the melting point was in the range of 100 to 101 °C.
Regarding `CC(C)=CCN1Cc2cc(Cl)c(Cl)c3[nH]c(=S)n(c23)C[C@@H]1C`, the melting point was found to be 173 °C.
The same measure for `CC(C)[C@@H]1OC(=O)N[C@@H]1C(=O)OCc1ccccc1`: 99 to 101 °C; for `O=C1CC(c2ccccc2)c2cc(C(c3ccc(Cl)cc3)n3ccnc3)ccc2N1` (stereo not given): 225 °C; for `CC(=O)Nc1cc(Cl)c(O)c(Cl)c1`: 151 to 152 °C.
As to `O=C(O)Cc1cccc(C(=O)c2ccc(Cl)cc2)c1[N+](=O)[O-]`, the melting point was in the range of 164 to 165 °C.
The same measure for `CCc1cc2c(OC)ccc(C)c2nc1Cl`: 101 to 102 °C.
Regarding `Cc1cc([N+](=O)[O-])cc2c(Cl)c(C#N)cnc12`, the melting point was in the range of 210 to 212 °C.
The same measure for `Cc1ccc(C(=S)Oc2nc[nH]c2C(N)=O)cc1`: 219 °C; for `CN1CCN(CCc2nc3cc(Br)c4ccccc4c3n2C)CC1`: 151 to 157 °C; for `CC(Oc1ccc(Oc2ccc(C(F)(F)F)cc2)cc1)C(=O)N1CCCO1` (stereo not given): 105 to 107 °C.
In the case of `O=C(O)CCCCc1ccc(CCNS(=O)(=O)c2ccc(Cl)cc2)cc1`, the melting point was in the range of 118 to 120 °C.
Molecule `CC(C)Oc1ccc(CCCCC2SC(=O)NC2=O)cc1` (stereo not given) showed a melting point of 72 to 73 °C.
For the molecule `O=C(NCc1cccc(C(F)(F)F)c1)c1cncc2c1cnn2-c1ccc(F)cc1`, the melting point was in the range of 172 to 173 °C.
`CCCC1(CC(=O)O)OCCc2c1[nH]c1c(C)ccc(C(=O)NC)c21` (stereo not given) gave a melting point of 89 to 91 °C.
Molecule `CCS(=O)c1nn(-c2ccccc2)c(=O)c2c(N)scc12` (stereo not given) yielded a melting point of 204 to 205 °C.
The same measure for `CC(C)(C)OC(=O)n1cc(C=C(Br)Br)c2ccccc21`: 101 to 104 °C.
For `Cc1cc2[nH]cc(CSCCN3CC=C(c4ccccc4)CC3)c2cc1C`, the melting point fell in the range of 123 to 124 °C.
As for `Cc1ccc(-c2cc(C(F)(F)F)nn2-c2ccc(S(N)(=O)=O)c(F)c2)cc1`, the figure is 126 to 128 °C; as for `COc1cc(OC)c2c(=O)[nH]c(-c3ccc(OC)c(-c4ccc(S(C)(=O)=O)cc4)n3)nc2c1`, 279 to 281 °C; as for `O=C1c2ccccc2C(=O)N1CCCn1ccnc1-c1ccccc1`, 109 to 110 °C.
The same measure for `NS(=O)(=O)c1ccc(-c2oc3c(Cl)ccc(O)c3c(=O)c2-c2ccc(F)cc2)cc1`: 251 to 252 °C.
For the molecule `CC(C(=O)O)c1ccc(N=c2sccn2C)cc1` (stereo not given), the melting point fell in the range of 130 to 132 °C.
For the molecule `Cn1nnnc1Cn1nnnc1Cl`, the melting point was in the range of 138 to 140 °C.
The molecule `CC(C)(C)c1cc(=S)cc(C(C)(C)C)o1` registered a melting point of 108 °C.
`Clc1cc(N2CCNCC2)c(Cl)nn1` came in with a melting point of 111 to 115 °C.
The same measure for `C[C@@H](Nc1c(NCc2ccc(Cl)cc2Cl)c(=O)c1=O)C(C)(C)C`: 235 to 239 °C.
As for `COC(=O)CCCC#Cc1cc(Cl)ccc1NS(=O)(=O)c1cn(C)cn1`, the figure is 76 to 79 °C.
